According to article PMC8395335, “Serotonergic–Muscarinic Interaction within the Prefrontal Cortex as a Novel Target to Reverse Schizophrenia-Related Cognitive Symptoms” (International Journal of Molecular Sciences, 2021):
Read-outs that look alike come from different tables or passages of the source.

Columns and labels:
[1] = system: MK-801-treated mice; assay: Novel object recognition (NOR) test, MK-801-induced deficits; format: in vivo; conditions: for Reversal of MK-801-induced disruptions in NOR test by combined administration: 7 days; for Effect of combined administration on MK-801-induced memory deficits in the NOR test: subeffective doses
Method: Drugs were administered on two different schedules: (1) acute administration of compounds 45 min (WAY100635—5-HT1A antagonist) or 30 min (VU0357017, VU152100, VU0238429, and F15599) before MK-801 (also administered once 30 min before the test in Y-maze or T1 in NOR test); and (2) prolonged administration (once per day for 7 consecutive days) of the compounds and MK-801 with the last administration 24 h before the test (NOR test) or at the day of the test (Y-maze). […] Schedules of administration are presented graphically in Figure 2. The subeffective doses of the compounds for acute administration in the NOR test were chosen based on our previous research (see: [22, 23]) while dose-dependent studies of the activity of the compounds in reversing disruptions in the Y-maze or after prolonged administration along with MK-801 were performed within this study. Different vehicles were used throughout the study: (1) 0.9% NaCl and (2) 10% Tween 80. Vehicles were administered to all animals (e.g., control mice and MK-801-treated mice) on the same schedule as drugs were administered to the appropriate drug-treated groups of mice. Neither solvent exerted effects on animal behavior.
Male Albino Swiss mice (Charles River, Sulzfeld, Germany) weighing 20–25 g at the beginning of the experiments were used in the studies. The animals were housed in a room with a 12:12 h light-dark cycle at a temperature of 22 ± 1 °C with food and water available ad libitum. The experimental groups consisted of 8–10 animals. All drugs were administered intraperitoneally (i.p.) at a volume of 10 mL/kg. The behavioral experiments were performed by an observer who was blinded to the treatment. The procedures were conducted in accordance with the European Communities Council Directive of 22 September 2010 (2010/63/EU) and Polish legislation acts concerning animal experimentation and were approved by the II Local Ethics Committee by the Maj Institute of Pharmacology, Polish Academy of Sciences in Krakow (15/2020, 240/2020).
In acute experiments, the tested compounds (alone or in combination) were administered 30 min before MK-801 (0.3 mg/kg), which was administered 30 min before the test or training trial (T1) in the NOR test. In chronic experiments, the tested compounds (alone or in combination) and MK-801 were administered for seven days. Behavioral tests were performed on the eighth day.
The NOR test was performed as described previously. Briefly, the habituation, training and test trial were carried out in a dark room in a black, plastic rectangular arena illuminated with a 355 lux bulb. During the habituation trial, the animals were allowed to explore the arena in the absence of objects (10 min/day for 2 days). The next day, the training (T1) and test (T2) trials were performed. Throughout T1, mice were allowed to freely explore two identical objects (5 min), one of which was subsequently replaced by a novel object in T2 (1 h later, 5 min of exploration). Time spent exploring (i.e., sniffing or touching) the familiar (Tfamiliar) or novel object (Tnovel) was measured by a trained observer, and then the recognition index was calculated for each mouse [(Tnovel − Tfamiliar)/(Tfamiliar + Tnovel)] × 100.

[2] = Pharmacokinetic analysis of drug-drug interactions (plasma, FC concentration, FC penetration); format: in vivo, mice; conditions: for Kp at 30 min: frontal cortex/plasma
Method: The experiment was performed using the methods described by Bridges et al. and in our previous studies.
The pharmacokinetic analysis was performed in the blood and prefrontal cortex. […] Plasma and FC samples were stored at −80 °C until analysis.
The investigated compounds were administered alone at the top dose (F15599—0.1 mg/kg, VU0357017—5 mg/kg, VU0152100—1 mg/kg, and VU0238429—5 mg/kg) and in combinations of muscarinic ligands at subeffective doses with F15599 at subeffective dose (F15599 + VU0357017 0.05 and 0.15 mg/kg, F15599 + VU0152100 0.05 and 0.05 mg/kg, F15599 + VU0238429 0.05 and 1 mg/kg). The FC and blood were collected on the eighth day, 30 min after administration. All mice were parallelly treated with MK-801 (0.3 mg/kg) for seven consecutive days.
On the day of analysis, frozen whole mouse brain tissues were weighed and homogenized in 1:2 (w/v) volumes of ice-cold acetonitrile containing 0.1% FA and the internal standard mix. Samples were homogenized using a Metal Bead Lysing Matrix, vortexed for 1 min, shaken for 20 min at 4 °C on Thermomixer C, and centrifuged at 14,000× g rpm for 20 min at 4 °C. Finally, 50 µL of supernatant were diluted with 0.1% FA in water (1:1, v/v) and analyzed using HPLC/MS/MS.
The sample extraction of plasma (20 μL) was performed after spiking with the internal standard mix using the protein precipitation method and three volumes of ice-cold acetonitrile containing 0.1% formic acid. The extract was vortexed, incubated on ice for 20 min and centrifuged at 14,000× g rpm for 20 min at 4 °C. The supernatant was diluted with 0.1% FA in water (1:1, v/v) and analyzed by means of HPLC/MS/MS using a QTRAP 4500 (AB Sciex) mass spectrometer in positive ion mode in Multiple Reaction Monitoring (MRM screening) coupled with UHPLC (NEXERA XR, Shimadzu). Chromatographic separation was achieved on a Synergi 4 µm Fusion-RP 80 A 50 × 2 mm (Phenomenex) column at a flow rate of 0.2 mL/min. The gradient program was as follows: 20% B (0.3 min), 20–100% B (1.7 min), 100% B (3 min), 100–20% B (0.1 min), 20% B (2 min), solvent A (95:5:0.1% formic acid in water:methanol) and solvent B (methanol containing 0.1% formic acid). The column temperature was set to 40 °C. Analyst software was used to control the instrument and collect data. The ion transfer tube temperature was 300 °C. The spray voltage, collision energy, declastering potential, and gas parameters were optimized to achieve the maximal response using the test compounds. Selected reaction monitoring was carried out using the transition parameters. Calibration curves were constructed, and a linear response was obtained in the range of 0.25–500 ng/mL (VU357017, VU0152100, and F15599) and 1.25–2500 ng/mL (VU0238429) by spiking known amounts of each compound in blank brain homogenates and plasma. For VU0357017 and F15599 IS VU0152100 was used as internal standard. Sample concentration of internal standard was 100 ng/mL for IS VU0238429 and 50 ng/mL for IS VU0152100.
Brain penetration was calculated as FC/plasma ratio × 100%.

[3] = F15599 0.05 mg/kg with VU0357017 0.15 mg/kg (subeffective doses)
[4] = Albino Swiss, mouse, in vivo, 30 min

Structure (SMILES): CCOC(=O)N1CCC(NCCNC(=O)c2ccccc2C)CC1 [VU0357017]
- Reversal of MK-801-induced deficits in the NOR test (recognition index) ([1]; 7 days with MK-801, 0.15 mg/kg): ineffective
- Reversal of MK-801-induced disruptions in NOR test by combined administration [1, 3]: reversed
- Effect of top dose on MK-801-induced deficits in the NOR test ([1]; acute, 5 mg/kg i.p., alone): pro-cognitive effect
- Effect of combined administration on MK-801-induced memory deficits in the NOR test ([1]; acute, F15599 with VU0357017): no effect
- Kp at 30 min ([2]; Albino Swiss, mouse, intraperitoneal, acute, combination F15599 0.05 mg/kg + VU0357017 1 mg/kg, read-out: PFC Penetration): 0.31
- Kp at 30 min ([2]; Albino Swiss, mouse, intraperitoneal, acute, top doses alone (VU0357017 5, VU0152100 1, VU0238429 5, F15599 0.1 mg/kg), 30 min after administration, read-out: PFC Penetration (FC/plasma ratio x 100%)): 0.67
- Kp at 30 min ([2]; Albino Swiss, mouse, intraperitoneal, chronic (7 days with MK-801), combination F15599 0.05 mg/kg + VU0357017 0.15 mg/kg, read-out: PFC Penetration): 0.46
- Kp at 30 min ([2]; Albino Swiss, mouse, intraperitoneal, chronic (7 days with MK-801), top doses alone (VU0357017 5, VU0152100 1, VU0238429 5, F15599 0.1 mg/kg), read-out: PFC Penetration (FC/plasma ratio x 100%)): 0.36
- concentration at 30 min ([2]; Albino Swiss, mouse, plasma, intraperitoneal, acute, combination F15599 0.05 mg/kg + VU0357017 1 mg/kg, read-out: Plasma): 7.19 ± 0.24 ng/mL
- concentration at 30 min ([2]; Albino Swiss, mouse, plasma, intraperitoneal, acute, top doses alone (VU0357017 5, VU0152100 1, VU0238429 5, F15599 0.1 mg/kg), 30 min after administration, read-out: Plasma): 107 ± 7.65 ng/mL
- concentration at 30 min ([2]; Albino Swiss, mouse, plasma, intraperitoneal, chronic (7 days with MK-801), combination F15599 0.05 mg/kg + VU0357017 0.15 mg/kg, read-out: Plasma): 5.13 ± 0.38 ng/mL
- concentration at 30 min ([2]; Albino Swiss, mouse, plasma, intraperitoneal, chronic (7 days with MK-801), top doses alone (VU0357017 5, VU0152100 1, VU0238429 5, F15599 0.1 mg/kg), read-out: Plasma): 138 ± 14.9 ng/mL
- concentration at 30 min ([2]; Albino Swiss, mouse, prefrontal cortex (FC), intraperitoneal, acute, combination F15599 0.05 mg/kg + VU0357017 1 mg/kg, read-out: PFC): 2.25 ± 0.56 ng/mL
- concentration at 30 min ([2]; Albino Swiss, mouse, prefrontal cortex (FC), intraperitoneal, acute, top doses alone (VU0357017 5, VU0152100 1, VU0238429 5, F15599 0.1 mg/kg), 30 min after administration, read-out: PFC): 71.7 ± 4.69 ng/mL
- concentration at 30 min ([2]; Albino Swiss, mouse, prefrontal cortex (FC), intraperitoneal, chronic (7 days with MK-801), combination F15599 0.05 mg/kg + VU0357017 0.15 mg/kg, read-out: PFC): 2.34 ± 0.255 ng/mL
- concentration at 30 min ([2]; Albino Swiss, mouse, prefrontal cortex (FC), intraperitoneal, chronic (7 days with MK-801), top doses alone (VU0357017 5, VU0152100 1, VU0238429 5, F15599 0.1 mg/kg), read-out: PFC): 50.3 ± 4.62 ng/mL
- PFC Penetration (FC/plasma ratio x 100%) ([2]; acute, top doses alone (VU0357017 5, VU0152100 1, VU0238429 5, F15599 0.1 mg/kg), 30 min after administration): 67%
- PFC Penetration (FC/plasma ratio x 100%) ([2]; chronic (7 days with MK-801), top doses alone (VU0357017 5, VU0152100 1, VU0238429 5, F15599 0.1 mg/kg)): 36%
- Decrease of FC penetration after acute concomitant administration with F15599 ([2]; subeffective doses, compared to top dose alone): more than 50%
- Decrease of FC penetration after prolonged administration compared to acute ([2]; top doses alone, animals treated with MK-801): ca. 50%

Structure (SMILES): Cc1cnc(CNCC2(F)CCN(C(=O)c3ccc(F)c(Cl)c3)CC2)nc1 [F15599]
- Reversal of MK-801-induced deficits in the NOR test (recognition index) ([1]; 7 days with MK-801, 0.025 mg/kg i.p.): ineffective
- Reversal of MK-801-induced deficits in the NOR test (recognition index) ([1]; 7 days with MK-801, 0.1 mg/kg i.p.): reversed
- Reversal of MK-801-induced disruptions in NOR test by combined administration ([1]; F15599 0.05 mg/kg with VU0152100 0.05 mg/kg (subeffective doses)): reversed
- Reversal of MK-801-induced disruptions in NOR test by combined administration ([1]; F15599 0.05 mg/kg with VU0238429 1 mg/kg (subeffective doses)): reversed
- Reversal of MK-801-induced disruptions in NOR test by combined administration [1, 3]: reversed
- Reversal of MK-801-induced deficits in the NOR test (recognition index) ([1]; acute, 0.05 mg/kg i.p., 30 min before MK-801): ineffective
- Reversal of MK-801-induced deficits in the NOR test (recognition index) ([1]; acute, 0.1 mg/kg i.p., 30 min before MK-801 (0.3 mg/kg)): reversed
- Reversal of MK-801-induced deficits in the NOR test (recognition index) ([1]; acute, 0.5 mg/kg i.p., 30 min before MK-801): reversed
- Effect of combined administration on MK-801-induced memory deficits in the NOR test ([1]; acute, F15599 with VU0152100): no effect
- Effect of combined administration on MK-801-induced memory deficits in the NOR test ([1]; acute, F15599 with VU0238429): no effect
- Effect of combined administration on MK-801-induced memory deficits in the NOR test ([1]; acute, F15599 with VU0357017): no effect
- PFC ([2]; Albino Swiss, mouse, in vivo, 0.1 mg/kg, 30 min): 21.57 ± 1.26 ng/mL
- concentration at 30 min ([2]; Albino Swiss, mouse, in vivo, 0.1 mg/kg, PFC): 18.3 ± 0.84 ng/mL
- Decrease of FC penetration after prolonged administration compared to acute [2, 4]: ca. 50%
- Decrease of FC penetration of F15599 when administered simultaneously [2, 4]: ~ 50%
- Effect of chronic administration of subeffective doses (combinations) on brain penetration ([2]; mouse, in vivo): increased
